Source: patent US10689378B2, “Triazolopyridine compounds and uses thereof” (Novartis AG, priority 2016, dated 2020)
Where two headings read alike, the source gives them in different places.

Experiments:
[1] = molecular target: T1, EED (1-441)-His protein (Homo sapiens, UniProt O75530); test: EED-H3K27Me3 peptide competition binding assay by AlphaScreen
T1 construct: 30 nM EED (1-441)-His protein
Experimental: EED-H3K27Me3 Peptide Competition Binding Assay by AlphaScreen (α-Screen)
To assess the compounds' potency in the EED-H3K27Me3 competition binding assay, compounds were serially diluted 3-fold in DMSO to obtain a total of twelve concentrations. Then compounds at each concentration (75 nL of each) were transferred by Mosquito into a 384-well Perkin Elmer ProxiPlate 384 plus plates. 8 uL of solutions containing 30 nM EED (1-441)-His protein and 15 nM biotin-H3K27Me3 (19-33) peptide in the buffer (25 mM HEPES, pH 8, 0.02% Tween-20, 0.5% BSA) were added to the wells and then incubated with compound for 20 min. AlphaScreen detection beads mix was prepared immediately before use by mixing nickel chelate acceptor beads and streptavidin donor beads in a 1:1 ratio (Perkin Elmer, Product No. 6760619C/M/R) into the buffer described above. Then 4 μL of detection beads mix was added to the plate and incubate in the dark at the rt for 1 h. The final concentration of donor and acceptor beads was 10 μg/mL for each. Plates were read on EnVision (PerkinElmer) using the AlphaScreen setting adapted for optimal signal detection with a 615 nm filter, after sample excitation at 680 nm. The emission signal at 615 nm was used to quantify compounds inhibition. AlphaScreen signals were normalized based on the reading coming from the positive (maximum signal control) and negative controls (minimum signal control) to give percentage of activities left. The data were then fit to a dose response equation using the program Helios (Novartis) to get the IC50 values. Helios is a Novartis in-house assay data analysis software using the methods described by Normolle, D. P., Statistics in Medicine, 12:2025-2042 (1993); Formenko, I. et al, Computer Methods and Programs in Biomedicine, 82, 31-37 (2006); Sebaugh, J. L., Pharmaceutical Statistics, 10:128-134 (2011); Kelly, C. et al., Biometrics, 46(4):1071-1085 (1990); and Kahm, M. et al., Journal of Statistical Software, 33 (7): (2010) (grofit: Fitting Biological Growth Curves with R, pages 1-21, available at http://www.jstatsoft.org/).

[2] = tested on: H3K27 methylation in G401 cell; test: ELISA (H3K27 methylation) assay in G401 cells; assay type: cell-based, human; details: Homo sapiens
Experimental: Compounds of the present invention were assessed for their ability to inhibit PRC2 activity in a pentameric complex of EZH2, SUZ12, EED, Rbap48 and AEBP in biochemical assays. The ability of compounds of the present invention to inhibit cellular activity of PRC2 was assessed by analysing histone H3 lysine 27 methylation in human cell lines. The ability of compounds of the present invention to inhibit cancers was derived from their ability to modulate activity in human cancer cell lines bearing specific dependence to PRC2 activity to maintain cancerous growth.
ELISA (H3K27 Methylation) Assay
Representative compounds of the present invention were serially and separately diluted 3-fold in DMSO to obtain a total of eight or twelve concentrations. Then the compounds were added to G401 cell cultured in 384-well plate at 1:500 dilution to obtain the highest concentration of 20 μM. The cells were further cultured for 48 h before ELISA procedure.
Histone extraction: Cells, in 384-well plate, were washed with PBS (10×PBS buffer (80 g NaCl (Sigma, S3014), 2 g KCl (Sigma, 60128), 14.4 g Na2HPO4 (Sigma, S5136), 2.4 g KH2PO4 (Sigma, P9791) to 1 L water, pH to 7.4) and lysed with the addition of lysis buffer (0.4N HCl; 45 μL per well). The plate was gently agitated at 4° C. for 30 min. The cell lysate was neutralized with neutralization buffer (0.5 M sodium phosphate dibasic, pH 12.5, 1 mM DTT; 36 μL per well). The plate was agitated to ensure the lysates were well mixed prior to the ELISA protocol.
ELISA protocol: Cell lysates were transferred to the wells of a 384-well plate and the final volume was adjusted to 50 μL per well with PBS. The plate was sealed, centrifuged at 2,000 rpm for 2 min and incubated at 4° C. for about 16 h. The plate was washed with TBST buffer (1×TBS (10×TBS: 24.2 g Tris (Sigma, T6066), 80 g NaCl (Sigma, S3014) to 1 L of water and adjust pH to 7.6 with HCl) with 0.1% Tween-20). Blocking buffer (TBST, 5% BSA; 50 μL per well) was added and the plate was incubated for 1 h at rt. The blocking buffer was removed and primary antibody was added (30 μL per well). The following dilutions were performed with blocking buffer: for anti-H3K27me3 antibody (Cell Signaling Technology, #9733), dilution was 1:1000; for anti-H3K27me2 antibody (Cell Signaling Technology, #9288), dilution was 1:100; for anti-H3 antibody (Abcam, Cat #24834), dilution was 1:1000. The primary antibody was incubated in the plate at rt for 1 h. The wells were washed with TBST and incubated with secondary antibody for 1 h at rt. For secondary antibodies, the following dilutions were carried out with blocking buffer: anti-rabbit antibody (Jackson ImmunoResearch, #111-035-003), dilution was 1:2000; and anti-mouse antibody (Cell signaling technology, #7076), dilution was 1:1000. After 1 h of incubation at rt, the wells were washed with TBST. ECL substrate (Pierce, #34080) was added at 30 μL per well and the plates were centrifuged at 2,000 rpm for 2 min. The signal was read using a PerkinElmer Envision Reader. The H3K27 methylation readouts were normalized using H3 signal and then percentage inhibition was calculated against the samples treated with DMSO. The data were then fit to a dose response curve using the program Helios to get the IC50 values of the test compound.

[3] = EED-H3K27Me3 peptide competition, AlphaScreen, read-out: (a) IC50 EED Alphascreen binding Qualified
[4] = G-401, H3K27 methylation ELISA, read-out: (c) IC50 ELISA Qualified
[5] = read-out: (a) IC50, EED Alphascreen binding Qualified
[6] = G-401, read-out: (c) IC50, ELISA Qualified
[7] = read-out: (a) IC50 EED Alphascreen binding Qualified
[8] = G-401, read-out: (c) IC50 ELISA Qualified

T1 sequence (O75530 whole entry): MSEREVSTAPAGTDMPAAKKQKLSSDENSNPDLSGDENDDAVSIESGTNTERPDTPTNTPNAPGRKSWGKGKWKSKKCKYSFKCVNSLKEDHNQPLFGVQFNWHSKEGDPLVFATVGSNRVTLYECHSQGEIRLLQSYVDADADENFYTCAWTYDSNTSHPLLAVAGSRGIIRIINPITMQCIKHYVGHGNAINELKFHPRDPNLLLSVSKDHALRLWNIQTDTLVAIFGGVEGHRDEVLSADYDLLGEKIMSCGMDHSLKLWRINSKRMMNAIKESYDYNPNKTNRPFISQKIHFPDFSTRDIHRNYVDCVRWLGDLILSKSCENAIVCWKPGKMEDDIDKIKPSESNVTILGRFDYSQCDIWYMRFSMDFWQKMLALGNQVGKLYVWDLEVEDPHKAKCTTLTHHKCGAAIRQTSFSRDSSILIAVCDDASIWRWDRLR

COc1cccc(F)c1CNc1ccc(-c2ccccc2C)c2nncn12 [Example 211, N-(2-fluoro-6-methoxybenzyl)-8-(o-tolyl)-[1,2,4] triazolo[4,3-a]pyridin-5-amine]
IC50 [1, 3]: 103 nM
IC50 [2, 4]: 151 nM

CCc1ccccc1-c1ccc(NCc2c(F)cccc2OC)n2cnnc12 [Example 254, 8-(2-ethylphenyl)-N-(2-fluoro-6-methoxybenzyl)-[1,2,4]triazolo[4,3-a]pyridin-5-amine]
IC50 [1, 3]: 263 nM
IC50 [2, 4]: 761 nM

COc1ccccc1CNc1ccc(-c2ccc(NC(C)=O)cc2)c2nncn12 [Example 80, N-(4-(5-((2-methoxybenzyl)amino)-[1,2,4]triazolo[4,3-a]pyridin-8-yl)phenyl) acetamide]
IC50 [1, 5]: 224 nM
IC50 [2, 6]: 779 nM

COc1c(F)cc(F)cc1CNc1ccc(-c2ccc(CN(C)C)cc2)c2nncn12 [Example 146, N-(3,5-difluoro-2-methoxybenzyl)-8-(4-((dimethylamino)methyl)phenyl)-[1,2,4]triazolo[4,3-a] pyridin-5-amine]
IC50 [1, 5]: 1980 nM
IC50 [2, 6]: 4110 nM

COc1cc(F)c(F)cc1CNc1ccc(-c2ccc(CN(C)C)cc2)c2nncn12 [Example 103, N-(4,5-difluoro-2-methoxybenzyl)-8-(4-((dimethylamino)methyl)phenyl)-[1,2,4]triazolo[4,3-a] pyridin-5-amine]
IC50 [1, 5]: 2860 nM
IC50 [2, 6]: 8210 nM

COc1cccc(F)c1CNc1ccc(-c2ccc(Cl)nc2C)c2nncn12 [Example 263, 8-(6-chloro-2-methylpyridin-3-yl)-N-(2-fluoro-6-methoxybenzyl)-[1,2,4]triazolo[4,3-a] pyridin-5-amine]
IC50 [1, 3]: 16.9 nM
IC50 [2, 4]: 15.4 nM

Cc1ccccc1CNc1ccc(-c2ccc(CN(C)C)cc2)c2nncn12 [Example 31, 8-(4-((dimethylamino)methyl)phenyl)-N-(2-methylbenzyl)-[1,2,4]triazolo[4,3-a]pyridin-5-amine]
IC50 [1, 5]: 394 nM
IC50 [2, 6]: 508 nM

CN(C)Cc1ccc(-c2ccc(NCc3cccc(F)c3)n3cnnc23)cc1 [Example 35, 8-(4-((dimethylamino)methyl)phenyl)-N-(3-fluorobenzyl)-[1,2,4] triazolo [4,3-a]pyridin-5-amine]
IC50 [1, 5]: 2570 nM
IC50 [2, 6]: 3490 nM

COc1cc(F)ccc1CNc1ccc(-c2ccc(NS(C)(=O)=O)c(F)c2)c2nncn12 [Example 129, N-(2-fluoro-4-(5-((4-fluoro-2-methoxybenzyl)amino)-[1,2,4]triazolo[4,3-a]pyridin-8-yl)phenyl)methane sulfonamide]
IC50 [1, 5]: 381 nM
IC50 [2, 6]: 854 nM

COc1ccc(F)c(F)c1CNc1ccc(-c2ccc(S(C)(=O)=O)cc2)c2nncn12 [Example 244, N-(2,3-difluoro-6-methoxybenzyl)-8-(4-(methylsulfonyl)phenyl)-[1,2,4]triazolo[4,3-a]pyridin-5-amine]
IC50 [1, 3]: 231 nM
IC50 [2, 4]: 277 nM

COc1cc(C)c(-c2ccc(NCc3c(F)cc(F)cc3OC)n3cnnc23)cn1 [Example 318, N-(2,4-difluoro-6-methoxybenzyl)-8-(6-methoxy-4-methylpyridin-3-yl)-[1,2,4] triazolo[4,3-a]pyridin-5-amine]
IC50 [1, 3]: 71.6 nM
IC50 [2, 4]: 71.6 nM

COc1nccc(N)c1CNc1ccc(-c2cccnc2C)c2nncn12 [Example 371, N-((4-amino-2-methoxypyridin-3-yl)methyl)-8-(2-methylpyridin-3-yl)-[1,2,4] triazolo[4,3-a]pyridin-5-amine]
IC50 [1, 7]: 102 nM
IC50 [2, 8]: 92.7 nM

COc1ccc(F)c(F)c1CNc1ccc(-c2cccnc2C)c2nncn12 [Example 286, N-(2,3-difluoro-6-methoxybenzyl)-8-(2-methylpyridin-3-yl)-[1,2,4]triazolo[4,3-a] pyridin-5-amine]
IC50 [1, 3]: 112 nM
IC50 [2, 4]: 115 nM

COc1cc(-c2ccc(NCc3ccccc3OC)n3cnnc23)ccn1 [Example 59, N-(2-methoxybenzyl)-8-(2-methoxypyridin-4-yl)-[1,2,4] triazolo[4,3-a]pyridin-5-amine]
IC50 [1, 5]: 31.6 nM
IC50 [2, 6]: 168 nM

COc1cccc(F)c1CNc1c(F)cc(-c2cccnc2C)c2nncn12 [Example 311, 6-fluoro-N-(2-fluoro-6-methoxybenzyl)-4-(2-methylpyridin-3-yl)-[1,2,4] triazolo[4,3-a]pyridin-7-amine]
IC50 [1, 3]: 420 nM
IC50 [2, 4]: 833 nM

COc1cc(F)ccc1CNc1ccc(-c2cnc(N3CCN(C(C)C)CC3)nc2)c2nncn12 [Example 104, N-(4-fluoro-2-methoxybenzyl)-8-(2-(4-isopropylpiperazin-1-yl)pyrimidin-5-yl)-[1,2,4]triazolo[4,3-a] pyridin-5-amine]
IC50 [1, 5]: 160 nM
IC50 [2, 6]: 132 nM

COc1cccc(F)c1CNc1ccc(-c2ccccc2C(C)C)c2nncn12 [Example 257, N-(2-fluoro-6-methoxybenzyl)-8-(2-isopropylphenyl)-[1,2,4]triazolo[4,3-a] pyridin-5-amine]
IC50 [1, 3]: 906 nM
IC50 [2, 4]: ≥ 62500 nM

COc1cccc(F)c1CNc1ccc(-c2cn(C)c(C)n2)c2nncn12 [Example 365, 8-(1,2-dimethyl-1H-imidazol-4-yl)-N-(2-fluoro-6-methoxybenzyl)-[1,2,4] triazolo[4,3-a]pyridin-5-amine]
IC50 [1, 7]: 197 nM
IC50 [2, 8]: 278 nM

COc1cccc(F)c1CNc1ccc(-c2cncc(C(C)O)c2)c2nncn12 (stereo not drawn) [Example 197, 1-(5-(5-((2-fluoro-6-methoxybenzyl)amino)-[1,2,4]triazolo[4,3-a]pyridin-8-yl)pyridin-3-yl)ethanol]
IC50 [1, 3]: 414 nM
IC50 [2, 4]: 161 nM

COc1cc(F)cc(F)c1CNc1ccc(-c2cnc(OC3CC3)nc2C)c2nncn12 [Example 344, 8-(2-cyclopropoxy-4-methylpyrimidin-5-yl)-N-(2,4-difluoro-6-methoxybenzyl)-[1,2,4]triazolo[4,3-a]pyridin-5-amine]
IC50 [1, 3]: 25.5 nM
